The text below walks through data of patent US6630490B2, “Methods for treatment of disease-induced peripheral neuropathy and related conditions” (NeoTherapeutics, Inc., priority 2000, dated 2003).

Data set [1] relates to unoperated rats, mDCN-T13 heat, pinch and touch fields. The following applies: systemically injected NGF; Diamond et al., 1992; Pertens et al., 1999; cited from earlier work.
In data set [2] the test system is unoperated animals. The following applies: rat, in vivo; cited from earlier work.
The test system of data set [3] is control and diabetic rats. The data set is described as follows: Formalin test in control and diabetic rats. It counts as in vivo, rat. Here is the method:
(§1) Induction of diabetes: Female, adult, Sprague-Dawley rats (250-275 g) were fasted overnight prior to the intraperitoneal injection of a freshly made solution of streptozotocin in 0.9% saline to deliver a dose of 50 mg/kg body weight. Food was restored and animals left for 3 days before determination of glucose levels in a blood sample obtained by tail prick. Animals with blood glucose levels >15 mmol/l were considered diabetic and used in the study. Treatment with the AIT-082 began on the day that hyperglycemia was confirmed. […] If they presented as diabetic then they were added to the study, if not they were omitted.
Formalin test: Rats were restrained manually and formalin (50 μl of 0.2% solution) injected sub-dermally into the hindpaw dorsum. Rats were then placed in an observation chamber and flinching behaviors counted in 1 minute blocks every 5 minutes for 1 hour.

Data set [4] deals with control and diabetic rats, sciatic nerve. As to the kind of experiment: Sensory nerve conduction velocity (SNCV) in control and diabetic rats. It is filed as in vivo, rat. Here is the method:
as §1
Nerve Conduction Velocity (NCV): Rats were anesthetized with halothane (4% in O2 for induction, 2-3% for maintenance) and the sciatic nerve exposed via an incision in the flank followed by separation of underlying musculature by blunt dissection. A thermistor probe was placed adjacent to the nerve and the wound closed with a skin clamp and a second, rectal, probe was positioned. Nerve and rectal temperature was maintained at 37° C. by a heating lamp and thermal pad connected to a temperature regulator and the thermistor probes. […] The distance between the two sites of stimulation was measured using surface calipers and NCV calculated as […]. NCV measurements were made in triplicate and the median used to represent the NCV. The thermistor probes were removed, the skin incision closed with wound clips and coated with Betadine and the animal withdrawn from halothane and monitored until it recovers consciousness. Rats were then returned to their cages with free access to food and water.

The subject of data set [5] is unoperated rats, mDCN-T13 heat, pinch and touch fields. The data set is described as follows: Nociceptive nerve sprouting in normally innervated skin (mDCN-T13 field mapping). It counts as in vivo, rat. From the text:
(§2) “Isolation” of sensory fields: This procedure, the initial step in the study of collateral sprouting and was done as described in Diamond et al. (1992). Its purpose was to isolate the cutaneous innervation territory, or field, of a selected nerve within a vast surround of denervated back skin. The nerve used was the medial branch of the left dorsal cutaneous nerve (DCN), at segmental level T13 (mDCN-T13). The isolation of its field was achieved by surgically eliminating on the left side the 4 DCNs immediately rostral and caudal to DCN-T13 (respectively T9-T12 and L1-L4), the lateral branch of DCN-T13, and the 4 lateral cutaneous nerves supplying the flank skin adjacent to the DCN-T13 territory.
(§3) Mapping of sensory fields: As described in Nixon et al. (1984) and Doucette and Diamond (1987), the borders of the isolated mechano-nociceptive and heat-nociceptive fields, subserved respectively by the Aδ and C fibers mDCN-T13, were determined by systematically applying across the skin forceps pinches (for mechano-nociception) and brief applications of a 60° C. heat probe (for heat-nociception); the presence of nociceptive endings is indicated during these procedures when the stimuli elicit the “CTM reflex” response, a contraction of the underlying cutaneus trunci muscle, which causes a characteristic and easily recognized skin twitch (Theriault and Diamond, 1988). The low-threshold (“touch”) fields were measured electrophysiologically as described by Jackson and Diamond (1984). The DCN-T13 was placed across bipolar platinum electrodes that fed into a preamplifier and thence to an oscilloscope and audio amplifier. Brushing innervated skin with a fine bristle generates impulses in the large myelinated Aβ axons, producing audible responses that disappear abruptly as the bristle crosses into denervated territory. The areas of the cutaneous territories of the three sensory modalities studied (“pinch”, “heat” and “touch”) were measured using the MCID image analysis system (Imaging Research, Inc., St. Catharines, Ontario, Canada). […]

For data set [6], the system named is rats with isolated mDCN-T13 field receiving anti-NGF. The data set is described as follows: Sprouting blocked by anti-NGF treatment, rescue by AIT-082. It is filed as in vivo, rat.
Description: as §2
Mapping of sensory fields: As described in Nixon et al. (1984) and Doucette and Diamond (1987), the borders of the isolated mechano-nociceptive and heat-nociceptive fields, subserved respectively by the Aδ and C fibers mDCN-T13, were determined by systematically applying across the skin forceps pinches (for mechano-nociception) and brief applications of a 60° C. heat probe (for heat-nociception); the presence of nociceptive endings is indicated during these procedures when the stimuli elicit the “CTM reflex” response, a contraction of the underlying cutaneus trunci muscle, which causes a characteristic and easily recognized skin twitch (Theriault and Diamond, 1988). […]

The subject of data set [7] is unoperated animals. As to the kind of experiment: Detection of hyperalgesia. It is filed as in vivo, rat. Here is the method:
Detection of hyperalgesia: Nociceptive responses were studied in lightly restrained animals as described in […] et al. (1999), using the latency of foot withdrawal from a 49° C. footbath, the temperature of the footbath at which withdrawal was initiated, and the heat thresholds for evoking the “CTM” reflex from back skin (see above). Hyperalgesia is defined here as a lowering of the threshold of a nociceptive stimulus required to produce a reflex response, and/or a reduction in the latency of that response. Administration of AIT-082: AIT-082 was obtained from NeoTherapeutics Inc., Irvine, Calif., USA. A 50 mg/ml solution in sterile 0.9% NaCl was made up freshly every three days. The standard administration protocol was a daily i.p. injection of 50 mg/kg AIT-082.

Data set [8] relates to control and diabetic rats. The data set is described as follows: Thermal response latency in control and diabetic rats. It is filed as in vivo, rat. As to conditions: for thermal hyperalgesia (week 4) and hypoalgesia (week 8): diabetic rats. Here is the method:
as §1
Thermal response latency: Rats were placed in an observation chamber on the surface (floor temperature 30° C.) of a modified Hargreaves Apparatus (UARD, San Diego Calif.) and allowed to acclimate for 5 minutes. For measurement of thermal response latency, a heat source (delivering 4.5 amps to give a paw withdrawal latency of approximately 10 seconds in control rats) was maneuvered underneath the hind paw. The heat source was turned on manually and a stop clock activated until it shut off automatically when the paw was moved (24 sec cut off time). The procedure was repeated 4 times on the same paw at 5 minute intervals and the median of values 2-4 used to represent the thermal response latency.

The test system of data set [9] is rats with isolated mDCN-T13 field. As to the kind of experiment: Collateral sprouting of nociceptive nerves into adjacent denervated skin. It counts as in vivo, rat.
Description: as §2, §3

Setting [10] is: unoperated rats, 50 mg/kg daily for 20 days, versus saline.

Take “NGF: nerve growth factor, exogenous, systemically injected”: the “sprouting in normal skin” value in data set [1] was “induces sprouting in normal skin”. The hyperalgesia result in the data set on unoperated animals [2] is given as “causes hyperalgesia”.

As to `O=C(CCn1cnc2c(=O)[nH]cnc21)Nc1ccc(C(=O)O)cc1` [AIT-082, N-4-carboxyphenyl-3-(6-oxohydropurin-9-yl) propanamide], in data set [3] (control and diabetic rats), the formalin-evoked flinching entry is listed as “dose-dependently reduced”. The “formalin-evoked hyperalgesia by phase” value in [3] (diabetic rats) was “suppression of hyperalgesia was notable in phases 1, Q, and 2a”. Further, the SNCV result in [4] (control rats) was “no effect”; in data set [4] (diabetic rats, week 8) it was “dose-dependent improvement”. Besides, the SNCV deficit result in data set [4] (diabetic rats, week 4) is listed as “no effect”. For the same molecule, the “limited dose-response study for inducing nociceptive sprouting” value in [5] (daily i.p. injection of 50 mg/kg, not illustrated) is reported as “well above threshold for inducing nociceptive sprouting, but below saturating levels”. Moreover, the “nociceptive fields, pinch and heat (area of innervation)” value in data set [5] (setting [10]) is “expanded significantly”. In [5] (setting [10]), the “touch fields (NGF-insensitive Aβ fibers)” value is “unaffected”. For the same molecule, the “sprouting under supra-threshold ("high") anti-NGF treatment” value in data set [6] (daily AIT-082 plus about 5-fold anti-NGF dose, fields after 22 days) was “sprouting continued to be absent”. Further, in data set [6] (daily AIT-082 plus daily anti-NGF, pinch and heat fields after 22 days), the “sprouting under threshold ("low") anti-NGF treatment” value was “totally rescued the sprouting”. The “hyperalgesia, threshold temperature for foot withdrawal from a hot probe” value with unoperated animals [7] (FIG. 4(a)) is reported as “does not cause hyperalgesia”. Also, the “hyperalgesia, threshold temperature for evoking the CTM reflex in dorsal skin” value in the data set with unoperated animals [7] (FIG. 4(b)) is on record as “does not cause hyperalgesia”. For the same molecule, the “hyperalgesia, latency of foot withdrawal from a 49° C. hot bath” value in the data set on unoperated animals [7] (FIG. 4(c)) was “does not cause hyperalgesia”. Further, the “hyperalgesia (a number of recognized tests)” value in the data set with unoperated animals [7] (standard AIT-082 administration, at any time during or following treatment) is reported as “failed to provide any evidence for the occurrence of this phenomenon”. In [8] (control rats), the thermal response latency result is “without effect”. The “thermal hyperalgesia (week 4) and hypoalgesia (week 8)” value in data set [8] is “dose-dependently prevented both hyperalgesia and hypoalgesia”; in data set [8] (high dose 100 mg/kg), “completely prevented both hyperalgesia at week 4 and hypoalgesia at week 8”. Moreover, the “amount by which field expansions in the AIT-082 sprouting group exceeded controls” value in data set [9] (after 20 days of treatment, comparison from raw data of FIGS. 1 and 2) was “approximately equal to the expansion in field areas induced in unoperated animals”. The “expansion of nociceptive fields into adjacent denervated skin relative to control group” value in data set [9] (daily AIT-082 after field isolation, mapping every 3 or 4 days) was “increased expansion of the nociceptive fields”. Also, the “time at which increased field expansion became apparent” value in data set [9] (daily AIT-082 versus saline) is “about 13 days post-isolation”.
